Experimental data as given in PMC6757289, “Design and Characterization of SGK3-PROTAC1, an Isoform Specific SGK3 Kinase PROTAC Degrader” (ACS Chemical Biology, 2019).

Key:
Assay in all cases: TMT global proteomic analysis of HEK293 cells
Format in all cases: cell-based, Homo sapiens
Conditions in all cases: HEK293, 0.3 μM, 8 h
MOXD1 = system: MOXD1
Procedure: (§1) To establish the specificity of SGK3-PROTAC1 employing an unbiased approach, we performed quantitative Tandem–Mass–Tag (TMT)-labeled global proteomic analysis of HEK293 cells treated in the presence or absence of 0.3 μM SGK3-PROTAC1 compared to either 0.3 μM cisSGK3-PROTAC1 or DMSO for 8 h. Experiments were undertaken in triplicate, and analysis in Proteome Discoverer v2.2 using the Mascot search engine allowed relative quantification of 8766 proteins.
(§2) Figure 4 TMT proteomic analysis of HEK293 cells treated with SGK3-PROTAC1. (A) Cells were treated with DMSO (control), SGK3-PROTAC1 (0.3 μM), or cisSGK3-PROTAC1 (0.3 μM) for 8 h and lysed. Lysates were subjected to immunoblot analysis with the indicated antibodies. (B) Lysates were examined by quantitative proteomics. […]
(§3) Cell culture and proteomic sample preparation
(§4) Cells pellets were lysed with 2 ml of lysis buffer (8 M Urea, 50 mM Ammonium bicarbonate containing protease inhibitor and phosphatase inhibitor). The sample were left on ice for 15 min and were then sonicated for 5 min in ice-cold water bath under high intensity with 30 sec on and off. After sonication, benzonase® endonuclease (Merck Millipore) with the volume ratio of 1: 100 were added into the lysate to degrade DNA and RNA. The lysate were then centrifuged at 12,000 rpm for 15 min at 4 °C, and supernatants were transferred into new eppendorf tubes. The protein concentration were measured with BCA assay (Pierce™ BCA Protein Assay Kit, Thermo). The lysate from each sample was reduced with 5 mM DTT at 45 °C for 30 min. Lysates were briefly centrifuged and were cool down to room temperature before alkylation in the dark with 10 mM iodoacetamide at room temperature. The alkylation was then quenched by the addition of 5 mM DTT. Samples were first digested by Lys-C with the weight ratio of 1:200 (w/w) for 4 h at 30 °c. Then, sample were diluted with 50 mM ammonium bicarbonate to 1.5 M Urea concentration. Samples were then digested with trypsin (Pierce trypsin, Thermo) at an enzyme to protein ratio of 1:50 (w/w) at room temperature with gentle shaking for overnight.
(§5) The digest was stopped by the addition of 1% TFA (v/v), centrifuged at 10,000 g for 10 min at room temperature.
(§6) The supernatant were desalted on 200 mg SepPak tC18 cartridge (Waters). Desalted peptides were dried by vacuum centrifugation using Speedvac (Thermo).
(§7) TMT labelling and Basic C18 reverse phase (bRP) chromatography fractionation Each sample (200 μg of peptides each) was re-suspended in 100 μL of 100 mM TEAB buffer. The TMT labelling reagents were equilibrated to room temperature and 41 μL anhydrous acetonitrile was added to each reagent channel and softly vortexed for 10 min. Peptides were transferred to the corresponding TMT channels and incubated for 1 h at room temperature. The reaction was quenched with 8 μL of 5% hydroxylamine. To ensure complete labelling, 1 µg of labelled samples from each channel were analyzed by LC-MS/MS prior to mix. After evaluation, the complete TMT labelled 9 samples were then combined, acidified and dried. Sep-Pak desalting was then performed and the elution was dried to completeness.
(§8) Ultimate 3000 high-pressure liquid chromatography (HPLC) system (Dionex) were used for basic C18 reverse phase chromatography fractionation operating at 569 µL/min with two buffers: buffer A (10 mM ammonium formate, pH 10) and buffer B (80% ACN, 10 mM ammonium formate, pH 10). The desalted mixture of TMT-labelled peptides were resuspended in 200 µL of buffer A (10 mM ammonium formate, pH10) and separated on a C18 reverse phase column (4.6 × 250 mm, 3.5 μm, Waters) with a gradient from 3% B to 12.5 % B in 10 min, […]
(§9) min, 100% for 5 min, ramping to 3% B in 2.5 min and then 3% for 10 min. A total of 90 fractions (1 min per fraction) were collected before further concatenation into 30 final fractions. Each fraction was then dried and desalted over a C18 StageTip prior to analysis by mass spectrometry. […]

S100A7 = system: S100A7
Procedure: as §1, §2, §3, §4, §5, §6, §7, §8, §9

SDC2 = system: SDC2
Procedure: as §1, §2, §3, §4, §5, §6, §7, §8, §9

Row | SMILES | Abundances (Grouped) (MOXD1) | Ratio: (SGK3-PROTAC1) / (cSGK3-PROTAC1) (MOXD1) | Ratio: (compound) / (DMSO) (MOXD1) | Abundances (Grouped) (S100A7) | Ratio: (SGK3-PROTAC1) / (cSGK3-PROTAC1) (S100A7) | Ratio: (compound) / (DMSO) (S100A7) | Abundances (Grouped) (SDC2) | Ratio: (SGK3-PROTAC1) / (cSGK3-PROTAC1) (SDC2) | Ratio: (compound) / (DMSO) (SDC2)
1 | Cc1ccc(F)c(S(=O)(=O)Nc2ccc(-c3nc(OC[C@H]4CN(CCCCCCOCCOCCOCC(=O)N[C@H](C(=O)N5C[C@H](O)C[C@H]5C(=O)NCc5ccc(-c6scnc6C)cc5)C(C)(C)C)CCO4)c4cn[nH]c4n3)cc2)c1 [SGK3-PROTAC1] | 90.2 | 1.082 | 0.713 | 90.9 | 1.014 | 0.645 | 106.6 | 2.505 | 0.665
2 | Cc1ccc(F)c(S(=O)(=O)Nc2ccc(-c3nc(OC[C@H]4CN(CCCCCCOCCOCCOCC(=O)N[C@H](C(=O)N5C[C@@H](O)C[C@H]5C(=O)NCc5ccc(-c6scnc6C)cc5)C(C)(C)C)CCO4)c4cn[nH]c4n3)cc2)c1 [cisSGK3-PROTAC1] | 83.4 | – | 0.656 | 90.1 | – | 1.695 | 37.8 | – | 0.266
